# Reference: patent US20250129334A1, “LINEAGE SPECIFICATION DURING STEM CELL TRANSITION” (Amniotics AB, priority 2021, published 2025)
# Legend:
# [1] = tested on: HE cells; experiment: Lymphoid (NK) differentiation assay on OP9-DL1 stroma; type: cell-based, human; conditions: 3-day treatment, 35-day co-culture; UK5099 10 μM, DCA 3 mM
# Protocol: Subculture day 3 HE cells cultured in the presence of UK5099 (10 μM) or DCA (3 mM or 10 mM), as indicated, were collected after a 2-minute incubation at 37° C. with StemPro Accutase Cell Dissociation Reagent and seeded onto 80% confluent OP9-DL1 stroma. Cells were cultured in OP9 medium (OptiMEM medium with Glutamax (Invitrogen) with 10% FCS, 1% penicillin-streptomycin solution (Thermo Fisher Scientific) and 1% 2-mercaptoethanol (Invitrogen)) with SCF (10 ng/ml), FLT3-L (10 ng/ml), IL-2 (5 ng/ml), IL-7 (5 ng/ml, first 15 days only) and IL-15 (10 ng/ml) with passaging onto new OP9-DL1 stroma every week, as described previously (Renoux, V. M. et al. Identification of a Human Natural Killer Cell Lineage-Restricted Progenitor in Fetal and Adult Tissues. Immunity 43, 394-407 (2015)). At day 35 of co-culture, cells were analyzed on a BD LSRFortessa.
# [2] = tested on: HE cells; experiment: Transplantation of treated HE cells into irradiated NSG mice; type: in vivo
# Protocol: Sorted human HE cells (350,000) were mixed with OP9-DL1 stroma (60,000) and subcultured for 3 days with or without DCA (3 mM) on Matrigel (16 μg/cm^2, Corning)-coated 12-well plates in HE medium (32). Between 100,000-150,000 cells from control or DCA samples were transplanted into sub lethally irradiated (300 cGy) 8-week-old female NOD/Cg-Prkdc^scid Il2^tm1Wj1/SzJ mice (NSG, The Jackson Laboratory) together with 20,000 whole BM support cells from C57BV6.SJL mice (CD45.1^+/CD45.2^+, in house breeding). Cells were transplanted in single cell solution in 250 μL PBS with 2% FBS through intravenous tail vein injection. Drinking water of transplanted NSG mice was supplemented with ciprofloxacin (125 mg/L, HEXAL) for 3 weeks after transplantation to prevent infection. Mice were housed in a controlled environment with 12-hour light-dark cycles with chow and water provided ad libitim. Experiments and animal care were performed in accordance with the Lund University Animal Ethical Committee.
# Peripheral blood (PB) was collected from the tail vein into EDTA-coated microvette tubes (Sarstedt, Cat #20.1341.100). […]
# Bone marrow was analyzed at the 12-week transplantation endpoint. […]
Compound,NK cell differentiation (CD45+CD56+ cells) [1],"increase of CLP (common lymphoid progenitor) ([2]; FIG. 3, n, BM week 12) [fold]","human CD45+ cells in the peripheral blood ([2]; week 8, 3-day DCA-treated HE cells)"
"N#CC(=Cc1cn(-c2ccccc2)c2ccccc12)C(=O)O [UK5099, 2-Cyano-3-(1-phenyl-1H-indol-3-yl)-2-propenoic acid]",impaired NK cell formation,,
"O=C(O)C(Cl)Cl [DCA, dichloroacetate]",,3,around 1%
